Results published in PubChem BioAssay AID248 (DTP/NCI, 2004).
“And” between values parts separate entries of the source, which are not always exact repeats. Identical values can stand only once. Toxic doses and inconclusive results are not listed. Cut-off read from the data, not from the text of the source: active = T/C of 150% or more; inactive = T/C below 125%.

Test system: L1210 leukemia ip in BDF1 mice, survival T/C
Test: NCI In Vivo Anticancer Drug Screen. Data for tumor model L1210 Leukemia (intraperitoneal) in B6D2F1 (BDF1) mice
Conditions: endpoint: mean survival time, higher = longer survival
Summary of the method: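 Survival endpoint. Drug-treated group vs vehicle group, expressed as T divided by C. Tumor passaged by transplantation.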

[1] = dose: 100.0 mg/kg/injection, schedule: Q01DX009 (ip), vehicle: Klucel (hydroxypropylcellulose) (HPC)
[2] = dose: 100.0 mg/kg/injection, schedule: Q04DX003 (ip), vehicle: Klucel (hydroxypropylcellulose) (HPC)
[3] = dose: 200.0 mg/kg/injection, schedule: Q01DX009 (ip), vehicle: Klucel (hydroxypropylcellulose) (HPC)
[4] = dose: 200.0 mg/kg/injection, schedule: Q04DX003 (ip), vehicle: Klucel (hydroxypropylcellulose) (HPC)
[5] = dose: 400.0 mg/kg/injection, schedule: Q01DX009 (ip), vehicle: Klucel (hydroxypropylcellulose) (HPC)
[6] = dose: 400.0 mg/kg/injection, schedule: Q04DX003 (ip), vehicle: Klucel (hydroxypropylcellulose) (HPC)
[7] = dose: 100.0 mg/kg/injection, schedule: Q01DX001 (ip), vehicle: carboxymethylcellulose (CMC)
[8] = dose: 200.0 mg/kg/injection, schedule: Q01DX001 (ip), vehicle: carboxymethylcellulose (CMC)
[9] = dose: 400.0 mg/kg/injection, schedule: Q01DX001 (ip), vehicle: carboxymethylcellulose (CMC)
[10] = dose: 100.0 mg/kg/injection, schedule: Q04DX002 (ip), vehicle: Klucel (hydroxypropylcellulose) (HPC)
[11] = dose: 200.0 mg/kg/injection, schedule: Q04DX002 (ip), vehicle: Klucel (hydroxypropylcellulose) (HPC)
[12] = dose: 400.0 mg/kg/injection, schedule: Q04DX002 (ip), vehicle: Klucel (hydroxypropylcellulose) (HPC)
[13] = dose: 100.0 mg/kg/injection, schedule: Q04DX003 (ip), vehicle: saline
[14] = dose: 200.0 mg/kg/injection, schedule: Q04DX003 (ip), vehicle: saline

Measured: T/C

CN(C)CCC1(c2ccccc2)CCN(C)C1=O (stereo unspecified)
inactive: dose: 75.0 mg/kg/injection, schedule: Q01DX001 (ip), vehicle: carboxymethylcellulose (CMC) 95 % of control | dose: 150.0 mg/kg/injection, schedule: Q01DX001 (ip), vehicle: carboxymethylcellulose (CMC) 95 % of control

CC1(C)C2CCC1C(CO)C2 (stereo unspecified)
inactive: [1] 94 % of control | [2] 96 % of control | [3] 104 % of control | [4] 107 % of control | [5] 100 % of control | [6] 102 % of control

CC(=O)N1C(=O)C2(Nc3ccccc3N2)c2ccccc21
inactive: [7] 87 % of control | [8] 87 % of control | [9] 96 % of control

O=C(NC1CCCCC1)c1ccc(Cl)cc1
inactive: dose: 100.0 mg/kg/injection, schedule: Q01DX001 (ip), vehicle: Klucel (hydroxypropylcellulose) (HPC) 105 % of control | [2] 94 % of control | dose: 200.0 mg/kg/injection, schedule: Q01DX001 (ip), vehicle: Klucel (hydroxypropylcellulose) (HPC) 89 % of control | [4] 105 % of control | dose: 400.0 mg/kg/injection, schedule: Q01DX001 (ip), vehicle: Klucel (hydroxypropylcellulose) (HPC) 105 % of control | [6] 102 % of control

C[N+]1(C)C2CCC1[C@H](C(=O)[O-])[C@@H](O)C2 (stereo partly specified)
inactive: dose: 100.0 mg/kg/injection, schedule: Q01DX001 (ip), vehicle: saline 103 % of control | dose: 200.0 mg/kg/injection, schedule: Q01DX001 (ip), vehicle: saline 93 % of control | dose: 400.0 mg/kg/injection, schedule: Q01DX001 (ip), vehicle: saline 98 % of control

N#Cc1ccc(O)cc1
inactive: dose: 100.0 mg/kg/injection, schedule: Q01DX005 (ip), vehicle: Klucel (hydroxypropylcellulose) (HPC) 105 % of control | [1] 99 % of control | [10] 106 % of control | dose: 200.0 mg/kg/injection, schedule: Q01DX005 (ip), vehicle: Klucel (hydroxypropylcellulose) (HPC) 105 % of control | [3] 96 % of control | [11] 117 % of control | dose: 400.0 mg/kg/injection, schedule: Q01DX005 (ip), vehicle: Klucel (hydroxypropylcellulose) (HPC) 108 % of control | [12] 87 % of control

NC(=O)C[n+]1cccc(C(=O)Nc2ccccc2)c1
inactive: [13] 97 % of control | [14] 101 % of control | dose: 400.0 mg/kg/injection, schedule: Q04DX003 (ip), vehicle: saline 87 % of control

CCOP(=O)(OCC)Oc1c(Cl)c(Cl)c(Cl)c(Cl)c1Cl
inactive: [10] 104 % of control | [11] 100 % of control | [12] 107 % of control

C=CCOC(=O)COCC(=O)OCC=C
inactive: [13] 97 % of control | [14] 88 % of control

Cc1cccc(NC(=O)C2CCCCC2C(=O)O)c1C (stereo unspecified)
inactive: [10] 100 % of control | [11] 107 % of control | [12] 92 % of control

COc1cc2c(cc1OC)C1C(C)c3ccc(OC)c(OC)c3CN1CC2 (stereo unspecified)
inactive: [7] 100 % of control | [8] 100 % of control | [9] 96 % of control

NC1C(=O)Nc2cc(O)c(C(=O)O)cc21 (stereo unspecified)
inactive: dose: 100.0 mg/kg/injection, schedule: Q01DX001 (ip), vehicle: gum acacia 100 % of control | dose: 200.0 mg/kg/injection, schedule: Q01DX001 (ip), vehicle: gum acacia 100 % of control | dose: 400.0 mg/kg/injection, schedule: Q01DX001 (ip), vehicle: gum acacia 97 % of control

C/C=C1\CCCCN(Cc2ccccc2)CCC1
inactive: dose: 75.0 mg/kg/injection, schedule: Q01DX001 (ip), vehicle: saline 104 % of control | dose: 150.0 mg/kg/injection, schedule: Q01DX001 (ip), vehicle: saline 98 % of control

O=C(O)C(CCCN1C(=O)c2ccccc2C1=O)N1C(=O)c2ccccc2C1=O (stereo unspecified)
inactive: [1] 93 % of control | [3] 94 % of control | [5] 98 % of control

CCOC(=O)c1cc(=O)n(-c2ccc([N+](=O)[O-])cc2)n1C
inactive: dose: 100.0 mg/kg/injection, schedule: Q04DX003 (ip), vehicle: saline with Tween-80 94 % of control | dose: 200.0 mg/kg/injection, schedule: Q04DX003 (ip), vehicle: saline with Tween-80 92 % of control | dose: 400.0 mg/kg/injection, schedule: Q04DX003 (ip), vehicle: saline with Tween-80 94 % of control

CC(=O)Nc1ccccc1C#N
inactive: dose: 100.0 mg/kg/injection, schedule: Q04DX003 (ip), vehicle: saline sonified 104 % of control | dose: 200.0 mg/kg/injection, schedule: Q04DX003 (ip), vehicle: saline sonified 101 % of control | dose: 400.0 mg/kg/injection, schedule: Q04DX003 (ip), vehicle: saline sonified 97 % of control

Nc1nc(N)c2cc(CCc3ccccc3)ccc2n1
inactive: dose: 50.0 mg/kg/injection, schedule: Q01DX001 (ip), vehicle: carboxymethylcellulose (CMC) 95 % of control | [7] 95 % of control | [2] 95 % of control | [8] 101 % of control | [4] 90 % of control

CCCCCCC(=O)N(CCCC)CCCC
inactive: [7] 109 % of control | dose: 100.0 mg/kg/injection, schedule: Q01DX009 (ip), vehicle: carboxymethylcellulose (CMC) 100 % of control and 91 % of control | dose: 100.0 mg/kg/injection, schedule: Q04DX003 (ip), vehicle: carboxymethylcellulose (CMC) 103 % of control | [8] 95 % of control | dose: 200.0 mg/kg/injection, schedule: Q01DX009 (ip), vehicle: carboxymethylcellulose (CMC) 96 % of control and 104 % of control | dose: 200.0 mg/kg/injection, schedule: Q04DX003 (ip), vehicle: carboxymethylcellulose (CMC) 94 % of control | [9] 98 % of control | dose: 400.0 mg/kg/injection, schedule: Q04DX003 (ip), vehicle: carboxymethylcellulose (CMC) 92 % of control

O=C1C(CCSc2ccccc2)C(=O)N(c2ccccc2)C1c1ccccc1 (stereo unspecified)
inactive: [1] 93 % of control | [3] 94 % of control | [5] 95 % of control

O=C(O)c1cc(I)cc(I)c1I
inactive: [10] 105 % of control | [11] 88 % of control | [12] 102 % of control

COc1ccc(OC(=O)Nc2ccc(Cl)cc2Cl)cc1
inactive: dose: 50.0 mg/kg/injection, schedule: Q01DX009 (ip), vehicle: saline with Tween-80 102 % of control | dose: 100.0 mg/kg/injection, schedule: Q01DX009 (ip), vehicle: saline with Tween-80 91 % of control | dose: 200.0 mg/kg/injection, schedule: Q01DX009 (ip), vehicle: saline with Tween-80 98 % of control

O=C(Nc1ccccc1)c1cc(Cl)cc(Cl)c1Br
inactive: dose: 100.0 mg/kg/injection, schedule: Q01DX001 (ip), vehicle: other 96 % of control | dose: 200.0 mg/kg/injection, schedule: Q01DX001 (ip), vehicle: other 96 % of control | dose: 400.0 mg/kg/injection, schedule: Q01DX001 (ip), vehicle: other 95 % of control

NC(=O)N/C=N/N=C(N)N
inactive: dose: 15.0 mg/kg/injection, schedule: Q01DX Z (ip), vehicle: methylcellulose (MC) 101 % of control | dose: 30.0 mg/kg/injection, schedule: Q01DX Z (ip), vehicle: methylcellulose (MC) 107 % of control | dose: 60.0 mg/kg/injection, schedule: Q01DX Z (ip), vehicle: methylcellulose (MC) 108 % of control | dose: 120.0 mg/kg/injection, schedule: Q01DX Z (ip), vehicle: methylcellulose (MC) 108 % of control | dose: 240.0 mg/kg/injection, schedule: Q01DX Z (ip), vehicle: methylcellulose (MC) 94 % of control | dose: 420.0 mg/kg/injection, schedule: Q01DX Z (ip), vehicle: methylcellulose (MC) 94 % of control | dose: 600.0 mg/kg/injection, schedule: Q01DX Z (ip), vehicle: methylcellulose (MC) 86 % of control

Brc1cscc1Cc1cscc1Br
inactive: dose: 100.0 mg/kg/injection, schedule: Q01DX001 (ip), vehicle: saline with Tween-80 91 % of control | dose: 200.0 mg/kg/injection, schedule: Q01DX001 (ip), vehicle: saline with Tween-80 97 % of control | dose: 400.0 mg/kg/injection, schedule: Q01DX001 (ip), vehicle: saline with Tween-80 94 % of control
